Assay: Inhibition of AmpC beta lactamase by spectrophotometry
Conditions: not given

SMILES | Ki
O=C(O)c1ccc(C(=O)Nc2ccc(S(=O)(=O)Nc3cccc(B(O)O)c3)cc2)cc1 | 0.45 µM
Nc1cc(B(O)O)ccc1C(=O)O | 1.8 µM
Cc1noc(C)c1S(=O)(=O)Nc1cc(B(O)O)ccc1C(=O)O | 0.35 µM
O=C(O)c1ccc(C(=O)Nc2cccc(S(=O)(=O)Nc3cc(B(O)O)ccc3C(=O)O)c2)cc1 | 0.1 µM
O=S(=O)(Nc1cccc(B(O)O)c1)c1cccc(S(=O)(=O)Nc2cccc(B(O)O)c2)c1 | 0.06 µM
O=C(O)c1ccc(B(O)O)cc1NS(=O)(=O)c1cccc(S(=O)(=O)Nc2cc(B(O)O)ccc2C(=O)O)c1 | 0.023 µM

Assay: Lipophilicity, log D of the compound
Type: physicochemical
Conditions: octanol/water

logD | SMILES
0.026 | O=C(O)c1ccc(B(O)O)cc1NS(=O)(=O)c1cc(S(=O)(=O)c2ccccc2)cs1

Source: ChEMBL document CHEMBL1155495, “Structural study of phenyl boronic acid derivatives as AmpC beta-lactamase inhibitors” (Bioorg Med Chem Lett, 2010)
